Tests used:
Assay type in all cases: biochemical
AR-NTD [1] = target: T1, AR-NTD (Homo sapiens, UniProt P10275); assay: Temperature-dependent turbidity shift assay (TSA), critical temperature Tc; conditions: 500 mM NaCl
T1 construct: a domain of the androgen receptor localised at its N-terminus, amino acids 1-558
T1 sequence (P10275 1-558): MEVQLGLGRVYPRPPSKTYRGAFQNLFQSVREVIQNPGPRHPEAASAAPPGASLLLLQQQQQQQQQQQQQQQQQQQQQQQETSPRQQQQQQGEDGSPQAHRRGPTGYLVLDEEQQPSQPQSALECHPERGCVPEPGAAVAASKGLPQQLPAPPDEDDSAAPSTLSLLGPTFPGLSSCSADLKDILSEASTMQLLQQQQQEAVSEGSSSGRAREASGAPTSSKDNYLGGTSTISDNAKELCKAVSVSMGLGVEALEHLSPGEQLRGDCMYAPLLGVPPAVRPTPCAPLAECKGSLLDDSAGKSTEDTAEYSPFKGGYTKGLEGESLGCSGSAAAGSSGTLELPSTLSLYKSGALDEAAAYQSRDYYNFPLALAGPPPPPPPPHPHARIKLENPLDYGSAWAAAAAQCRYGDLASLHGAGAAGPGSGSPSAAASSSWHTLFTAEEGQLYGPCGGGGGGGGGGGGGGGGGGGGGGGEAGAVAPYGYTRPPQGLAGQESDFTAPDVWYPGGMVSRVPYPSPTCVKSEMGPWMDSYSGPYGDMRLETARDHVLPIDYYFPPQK
Experimental: FIG. 6. a) Apparent absorbance (at λ=350 nm) measurement at increasing temperatures of 30 μM ARNTD in 20 mM Hepes 7.4, 500 mM NaCl, 2 mM TCEP buffer in the absence (grey) and presence of 5 eq of EPI-001 (red) or BADGE (green). Dashed lines indicate condensation onset and calculated Tc values are depicted in the insert. b) Tc obtained using the TSA assay of AR-NTD at different concentrations in 20 mM Hepes 7.4, 500 mM NaCl, 2 mM TCEP buffer in the absence (grey) and presence of 5 eq of EPI-001 (red) or BADGE (green). Mean values of 3 independent measurements and the standard deviation are plotted.
To quantify the effects of EPI-001 on the AR-NTD phase separation, we implemented a temperature-dependent turbidity shift assay (TSA). In this assay we measure the sample turbidity as a reporter of condensation and determine the temperature at which a given sample demixes, the Critical Temperature. When droplets are formed, they scatter light and cause an abrupt increase in turbidity. Therefore, values above 0 absorbance units (AU) in the TSA assay indicate condensation. We measure turbidity as the apparent absorbance at a wavelength in which the absorption of the other components in the sample is minimal, in our case 350 nm. Addition of 5 equivalents (eq) of EPI-001 to a 30 μM AR-NTD and 500 mM NaCl sample lowered the Tc of the AR-NTD by 10° C. (FIG. 5a). […]

AR-NTD [2] = target: T1, AR-NTD; assay: Screening with the condensation assay, amplitude of the absorbance as parameter; conditions: screening concentration 100 μM; references DMSO and EPI-001 at 200 μM; mean of 3 measurements
Experimental: FIG. 9. Results of screening for molecules using the condensation assay with amplitude of the absorbance as a parameter determining the activity of tested molecules. First two bars show data points corresponding to the controls that are used to calculate the activity: negative reference (DMSO), positive reference (EPI-001 at 200 μM). The rest of the bars corresponds to the activity of three screened molecules at a screening concentration 100 μM. […] Mean values of 3 measurements and the standard deviation are plotted.
Please note that, with reference to this aspect of the invention, the inventors have shown that this parameter could also be used to select hits (see FIG. 9).

AR-NTD [3] = target: T1, AR-NTD; assay: Screening with the condensation (TSA) assay, percentage of shift versus reference shift; conditions: screening concentration 100 μM; negative reference DMSO; mean of 3 measurements
Experimental: FIG. 7. […] First two bars show data points corresponding to the controls that are used to calculate the activity: Negative reference (DMSO), Positive reference (EPI-001 at 200 μM). […] Mean values of 3 measurements and the standard deviation are plotted.
In this sense, in FIG. 7 the first two bars show data points corresponding to the controls that are used to calculate the activity: • Negative reference—DMSO • Positive reference—EPI-001 at 200 μM
Briefly, in order to quantitatively rank the tested compounds with regards to their efficacy to enhance the AR-NTD condensation in vitro and compare it to that of EPI-001, we measured the cloud point temperature (Tc) of each of the samples at constant protein concentration (100 μM). Then, we calculated the percentage of shift caused by the compound in comparison to the reference shift, the one caused by 200 μM EPI-001. Next, we plotted the normalised shift versus the compound concentration.

CC(C)(c1ccc(OCC2CO2)cc1)c1ccc(OCC2CO2)cc1 (stereo not drawn) [BADGE]
enhancement of AR-NTD condensation at all protein concentrations tested (left arm of phase diagram) (AR-NTD [1]; 5 eq of compound, various AR-NTD concentrations): not
lowering of the Tc of the AR-NTD (AR-NTD [1]; 5 equivalents of compound, 30 μM AR-NTD, absorbance at 350 nm): 3 °C
hit classification by activity based on amplitude of the absorbance, cut-off 25% (AR-NTD [2]): inactive
hit classification by activity (percentage of Tc shift relative to 200 μM EPI-001), cut-off 25% (AR-NTD [3]): non-hit

CC(C)(c1ccc(OC[C@H](O)CNS(C)(=O)=O)cc1)c1cc(Cl)c(OC[C@H](O)CCl)c(Cl)c1 [EPI-7170]
hit classification by activity based on amplitude of the absorbance, cut-off 25% (AR-NTD [2]): hits
hit classification by activity (percentage of Tc shift relative to 200 μM EPI-001), cut-off 25% (AR-NTD [3]): hits

Reference: patent US20240192233A1, “DRUG DISCOVERY ASSAY TO SCREEN FOR COMPOUNDS” (FUNDACIÓ INSTITUT DE RECERCA BIOMÈDICA (IRB BARCELONA), priority 2021, published 2024)
